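Step 1: Grow cells in 96-well plates. Step 2: Expose to compound for 48 hours at 5 concentrations. Step 3: Interpolate endpoints linearly; if unreached, use highest concentration. Here, GI50 denotes the concentration required for 50% inhibition of growth.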 Active and inactive are the calls of the source. No stated cut-off is given here; in the data, active = GI50 up to about 1.1 µM and inactive = higher.
Columns and labels:
Test in all cases: growth of human tumour cells (NCI), 48 h
[1] = test system: LXFL 529
[2] = test system: KM-20L2
[3] = test system: KM12
[4] = test system: SK-MEL-2
[5] = test system: RPMI-8226
[6] = test system: SR
[7] = test system: SK-MEL-5
[8] = test system: UO-31
[9] = test system: NCI-H522
[10] = test system: ACHN
[11] = test system: COLO 205
[12] = test system: PC-3
[13] = test system: MDA-MB-435
[14] = test system: UACC-257
[15] = test system: HCC 2998
[16] = test system: HCT-15
[17] = test system: HCT-116
[18] = test system: SK-MEL-28
[19] = test system: TK-10
[20] = test system: NCI-H226
[21] = test system: CCRF-CEM
[22] = test system: MOLT-4
[23] = test system: UACC-62
[24] = test system: IGROV-1
[25] = test system: M14
[26] = test system: U-251
[27] = test system: K562
[28] = test system: T47D
[29] = test system: SF-539
[30] = test system: HT-29
[31] = test system: DU-145
[32] = test system: SNB-78
[33] = test system: HL-60
[34] = test system: CAKI-1
[35] = test system: SF-268
[36] = test system: OVCAR-8
[37] = test system: A549
[38] = test system: A498
[39] = test system: LOX IMVI
[40] = test system: OVCAR-4
[41] = test system: 786-0
[42] = test system: DLD-1
[43] = test system: DMS-114
[44] = test system: SNB-75
[45] = test system: MCF7
[46] = test system: RXF 631
[47] = test system: SNB-19
[48] = test system: SN12C
[49] = test system: HOP-92
[50] = test system: SW-620
[51] = test system: BT-549
[52] = test system: OVCAR-5
[53] = test system: XF498
[54] = test system: HOP-62
[55] = test system: DMS-273
[56] = test system: HOP-18
[57] = test system: MDA-N
[58] = test system: OVCAR-3
[59] = test system: NCI-H23
[60] = test system: RXF 393
[61] = test system: EKVX
[62] = test system: SF-295
[63] = test system: SK-OV-3
[64] = test system: Malme-3M
[65] = test system: NCI-H460
[66] = test system: M19-MEL

Measured: GI50

CCOC(=O)C(=Cc1ccc(Oc2ccccc2)cc1)C(=O)OCC
inactive: [1] 2.29 µM | [2] 4.65 µM | [3] 5.98 µM | [4] 1.85 µM | [5] 2.79 µM | [6] 2.52 µM | [7] 1.98 µM | [8] 4.35 µM | [9] 4.22 µM | [10] 6.3 µM | [11] 4.06 µM | [12] 2.16 µM | [13] 2.58 µM | [14] 2.42 µM | [15] 10.6 µM | [17] 2.31 µM | [18] 3.56 µM | [19] 7.74 µM | [20] 3.17 µM | [21] 2.03 µM | [22] 1.92 µM | [23] 1.63 µM | [24] 6.81 µM | [25] 3.82 µM | [26] 3.35 µM | [27] 1.87 µM | [28] 5.85 µM | [29] 3.84 µM | [30] 3.18 µM | [31] 11.6 µM | [32] 5.7 µM | [33] 1.73 µM | [34] 14.1 µM | [35] 3.32 µM | [36] 2.19 µM | [37] 8.45 µM | [38] 15.3 µM | [39] 1.47 µM | [40] 7.59 µM | [41] 1.85 µM | [42] 2.14 µM | [43] 3.07 µM | [44] 2.66 µM | [45] 4.09 µM | [46] 3.03 µM | [47] 5.73 µM | [48] 2.27 µM | [49] 4.03 µM | [50] 2.22 µM | [51] 1.84 µM | [52] 4.44 µM | [53] 4.32 µM | [54] 3.28 µM | [55] 1.69 µM | [56] 13.8 µM | [57] 4.41 µM | [58] 6.38 µM | [59] 2.58 µM | [60] 1.89 µM | [61] 15.4 µM | [62] 5.13 µM | [63] 7.05 µM | [64] 2.56 µM | [65] 18.2 µM
2.44 µM: [16]

CCn1c(=O)nc2n(-c3ccc(SC)cc3)c3ccccc3nc-2c1=O
> 100 µM: [16]
inactive: [1] > 100 µM | [2] 40.5 µM | [3] > 100 µM | [4] > 100 µM | [5] 71.1 µM | [7] 9.42 µM | [8] > 100 µM | [9] > 100 µM | [10] 1.87 µM | [66] 30.7 µM | [11] 8.15 µM | [14] > 100 µM | [15] 29 µM | [18] > 100 µM | [19] > 100 µM | [20] > 100 µM | [21] > 100 µM | [22] > 100 µM | [23] 50.9 µM | [24] > 100 µM | [25] > 100 µM | [26] > 100 µM | [27] > 100 µM | [29] 54 µM | [32] > 100 µM | [33] 35.7 µM | [34] 32.9 µM | [35] 79.8 µM | [36] > 100 µM | [37] 29.1 µM | [38] > 100 µM | [40] > 100 µM | [41] > 100 µM | [42] > 100 µM | [43] 69.7 µM | [44] 76 µM | [46] > 100 µM | [47] > 100 µM | [48] > 100 µM | [49] > 100 µM | [50] 17.7 µM | [52] > 100 µM | [54] > 100 µM | [55] 71.1 µM | [56] > 100 µM | [58] 24.6 µM | [59] > 100 µM | [61] > 100 µM | [62] > 100 µM | [63] > 100 µM | [64] > 100 µM | [65] 20.9 µM

O=c1cc(/C=C/c2ccccc2)c2ccc(O/C(=C\c3ccccc3)c3nc4ccccc4c(=O)o3)cc2o1
30.3 µM: [16]
inactive: [1] 14.8 µM | [2] 31.5 µM | [3] 15.7 µM | [4] 25.6 µM | [5] 4.76 µM | [7] 16.3 µM | [10] 18.5 µM | [66] 25.3 µM | [11] 22.2 µM | [14] 28.9 µM | [15] 33.3 µM | [17] 14.2 µM | [18] 13.8 µM | [19] 51.4 µM | [21] 16.9 µM | [22] 17.6 µM | [23] 24.7 µM | [24] 30.1 µM | [25] 18.1 µM | [26] 23 µM | [27] 10.8 µM | [29] 23.3 µM | [32] 19.5 µM | [33] 12.7 µM | [34] 25.7 µM | [35] 11.8 µM | [36] 28.2 µM | [37] 30.4 µM | [38] 34.1 µM | [39] 31.1 µM | [40] 27.2 µM | [41] 44.3 µM | [42] 26.7 µM | [43] 15.1 µM | [46] 28.1 µM | [47] 26 µM | [48] 26.3 µM | [49] 15.7 µM | [50] 37.5 µM | [52] 44.9 µM | [53] 14.9 µM | [54] 28 µM | [55] 23 µM | [58] 15 µM | [59] 10.6 µM | [61] 23.7 µM | [62] 26.7 µM | [63] 39.4 µM | [64] 31.3 µM | [65] 23.3 µM
